The values that follow are results of earlier work, collected in article PMC8217170, “Phase Ib dose-escalation study of the hypoxia-modifier Myo-inositol trispyrophosphate in patients with hepatopancreatobiliary tumors” (Nature Communications, 2021).

The test system of data set [1] is pancreatic carcinoma. Details: method as in ref 15 (supplementary references). The following applies: 100 mg/kg gemcitabine; ref 15 (supplementary references); cited from earlier work.
For data set [2], the system named is hepatocellular carcinoma. Details: method as in ref 10 (supplementary references). The following applies: syngeneic, orthotopic rat model of hepatocellular carcinoma; ref 10 (supplementary references); cited from earlier work.

Consider `Nc1ccn([C@@H]2O[C@H](CO)[C@@H](O)C2(F)F)c(=O)n1` [gemcitabine, reference compound], for which the Survival in data set [1] was 63 days. Regarding `COc1cccc2c1C(=O)c1c(O)c3c(c(O)c1C2=O)C[C@@](O)(C(=O)CO)C[C@@H]3O[C@H]1C[C@H](N)[C@H](O)[C@H](C)O1` [doxorubicin, reference compound], the “Rats alive after 100 days” value in data set [2] is “one out of ten”.
